Results published in US9452986B2, “6-heteroaryloxy- or 6-aryloxy-quinoline-2-carboxamides and method of use” (AbbVie Inc., priority 2014, dated 2016).
Read-outs that look alike come from different tables or passages of the source.

Molecular target: recombinant human Nav1.7 (Homo sapiens (Human), UniProt Q15858)
Assay: FRET-based membrane potential assay, recombinant human sodium channel Nav1.7
Assay type: cell-based
Procedure, shortened: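 Channel activation used veratridine at its EC80, set by a dilution curve each experiment, together with Leiurus scorpion venom, added 3 min after compound. Membrane-potential ratio signals from FLIPR Tetra in HEPES-buffered HBSS were fitted to a four-parameter Hill equation for percent inhibition and IC50.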

[1] = HEK293 cells stably expressing recombinant human Nav1.7, veratridine + scorpion venom depolarization, read-out: FRET-Membrane Potential Nav1.7 IC50
[2] = read-out: FRET-Membrane Potential Nav1.7 IC50

Sequence of recombinant human Nav1.7 (Q15858 whole entry): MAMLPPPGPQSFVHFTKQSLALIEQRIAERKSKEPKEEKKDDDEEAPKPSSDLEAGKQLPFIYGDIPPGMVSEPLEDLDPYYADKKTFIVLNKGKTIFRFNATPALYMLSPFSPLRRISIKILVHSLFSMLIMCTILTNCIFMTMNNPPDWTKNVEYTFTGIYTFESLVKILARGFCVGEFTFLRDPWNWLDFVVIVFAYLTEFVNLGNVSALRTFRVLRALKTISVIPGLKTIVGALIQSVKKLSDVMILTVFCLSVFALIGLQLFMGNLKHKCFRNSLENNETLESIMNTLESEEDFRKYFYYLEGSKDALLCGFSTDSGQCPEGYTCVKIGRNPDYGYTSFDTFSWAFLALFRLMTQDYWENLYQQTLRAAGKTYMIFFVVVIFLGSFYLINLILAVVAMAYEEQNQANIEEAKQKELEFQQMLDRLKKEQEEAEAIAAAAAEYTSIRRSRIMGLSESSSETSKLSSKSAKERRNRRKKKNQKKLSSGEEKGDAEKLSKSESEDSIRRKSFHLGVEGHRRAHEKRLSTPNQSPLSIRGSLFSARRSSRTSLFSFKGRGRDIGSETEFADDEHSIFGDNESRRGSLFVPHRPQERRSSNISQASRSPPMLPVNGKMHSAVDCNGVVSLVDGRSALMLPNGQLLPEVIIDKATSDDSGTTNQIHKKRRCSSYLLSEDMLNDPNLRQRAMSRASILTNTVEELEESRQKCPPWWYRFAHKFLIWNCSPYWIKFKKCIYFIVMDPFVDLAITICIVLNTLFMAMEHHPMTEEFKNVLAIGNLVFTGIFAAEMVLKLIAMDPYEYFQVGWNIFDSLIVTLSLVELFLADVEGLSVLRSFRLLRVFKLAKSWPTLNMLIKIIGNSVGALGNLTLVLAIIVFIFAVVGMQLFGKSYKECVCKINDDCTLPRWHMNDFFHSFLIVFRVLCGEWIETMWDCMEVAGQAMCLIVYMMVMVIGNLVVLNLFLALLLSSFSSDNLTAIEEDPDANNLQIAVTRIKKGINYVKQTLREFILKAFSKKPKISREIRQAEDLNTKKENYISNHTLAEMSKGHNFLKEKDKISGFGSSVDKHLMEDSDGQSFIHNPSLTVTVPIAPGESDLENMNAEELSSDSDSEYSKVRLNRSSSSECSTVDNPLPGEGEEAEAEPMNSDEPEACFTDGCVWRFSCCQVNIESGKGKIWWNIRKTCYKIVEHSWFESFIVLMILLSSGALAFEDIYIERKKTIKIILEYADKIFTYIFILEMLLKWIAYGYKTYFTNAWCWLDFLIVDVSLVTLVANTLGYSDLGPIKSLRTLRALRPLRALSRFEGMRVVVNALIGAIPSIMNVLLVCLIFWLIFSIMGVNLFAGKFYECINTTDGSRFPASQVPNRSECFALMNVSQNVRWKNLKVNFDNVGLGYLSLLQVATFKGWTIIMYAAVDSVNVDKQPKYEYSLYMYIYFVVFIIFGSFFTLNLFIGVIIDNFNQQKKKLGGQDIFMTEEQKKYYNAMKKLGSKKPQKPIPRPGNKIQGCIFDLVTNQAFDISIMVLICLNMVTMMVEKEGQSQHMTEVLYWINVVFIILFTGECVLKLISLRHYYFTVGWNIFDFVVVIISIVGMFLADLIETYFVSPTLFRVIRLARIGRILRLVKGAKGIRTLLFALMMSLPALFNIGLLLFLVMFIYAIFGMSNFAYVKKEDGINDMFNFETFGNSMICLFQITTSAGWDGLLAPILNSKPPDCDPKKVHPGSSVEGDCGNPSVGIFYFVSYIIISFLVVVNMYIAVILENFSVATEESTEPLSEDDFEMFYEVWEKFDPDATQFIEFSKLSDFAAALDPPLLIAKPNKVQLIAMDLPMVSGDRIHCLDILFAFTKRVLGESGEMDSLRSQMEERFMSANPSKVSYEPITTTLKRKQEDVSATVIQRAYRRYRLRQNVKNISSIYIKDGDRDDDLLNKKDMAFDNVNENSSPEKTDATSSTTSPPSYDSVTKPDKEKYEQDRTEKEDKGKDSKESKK

Molecule: O=C(c1ccc2cc(Oc3ccc(C(F)(F)F)cn3)ccc2n1)N1CCNCC(F)C1 (stereo not shown) [Example 406, (6-fluoro-1,4-diazepan-1-yl)(6-{[5-(trifluoromethyl)pyridin-2-yl]oxy}quinolin-2-yl)methanone]
- IC50 [1]: 1060 nM

Molecule: C[C@H]1N(C(=O)c2ccc3cc(Oc4ccc(C(F)(F)F)cn4)ccc3n2)CC1(C)C [Example 197, (6-{[5-(trifluoromethyl)pyridin-2-yl]oxy}quinolin-2-yl)[(2R)-2,3,3-trimethylazetidin-1-yl]methanone]
- IC50 [1]: 2720 nM

Molecule: O=C(NC1CCCS(=O)(=O)C1)c1ccc2cc(Oc3ccc(C(F)(F)F)cn3)ccc2n1 (stereo not shown) [Example 349, N-(1,1-dioxidotetrahydro-2H-thiopyran-3-yl)-6-{[5-(trifluoromethyl)pyridin-2-yl]oxy}quinoline-2-carboxamide]
- IC50 [1]: 3250 nM

Molecule: O=C(c1ccc2cc(Oc3ccc(C(F)(F)F)cn3)ccc2n1)N1CCC2(COC2)C1 [Example 494, 2-oxa-6-azaspiro[3.4]oct-6-yl(6-{[5-(trifluoromethyl)pyridin-2-yl]oxy}quinolin-2-yl)methanone]
- IC50 [1]: 9320 nM

Molecule: CCN(CC)C(=O)CCNC(=O)c1ccc2cc(Oc3ccc(C(F)(F)F)cn3)ccc2n1 [Example 453, N-[3-(diethylamino)-3-oxopropyl]-6-{[5-(trifluoromethyl)pyridin-2-yl]oxy}quinoline-2-carboxamide]
- IC50 [1]: 405 nM

Molecule: O=C(N[C@H]1C[C@H](O)C1)c1ccc2cc(Oc3ccc(C(F)(F)F)cn3)ccc2n1 [Example 302, N-(trans-3-hydroxycyclobutyl)-6-{[5-(trifluoromethyl)pyridin-2-yl]oxy}quinoline-2-carboxamide]
- IC50 (FRET-Membrane Potential Nav1.7 IC50): 3490 nM

Molecule: CS[C@H]1CN(C(=O)c2ccc3cc(Oc4ccc(C(F)(F)F)cn4)ccc3n2)C[C@@H]1O [Example 348, [(3S,4S)-3-hydroxy-4-(methylsulfanyl)pyrrolidin-1-yl](6-{[5-(trifluoromethyl)pyridin-2-yl]oxy}quinolin-2-yl)methanone]
- IC50 [1]: 3900 nM

Molecule: N#Cc1ccc(Oc2ccc3nc(C(=O)NCCCN4CCOCC4)ccc3c2)cc1 [Example 87, 6-(4-cyanophenoxy)-N-[3-(morpholin-4-yl)propyl]quinoline-2-carboxamide]
- IC50 [1]: 1230 nM

Molecule: O=C(NCCC(=O)N1CCOCC1)c1ccc2cc(Oc3ccc(C(F)F)cn3)ccc2n1 [Example 459, 6-{[5-(difluoromethyl)pyridin-2-yl]oxy}-N-[3-(morpholin-4-yl)-3-oxopropyl]quinoline-2-carboxamide]
- IC50 [1]: 8690 nM

Molecule: N#Cc1ccc(Oc2ccc3nc(C(=O)N4CCCC(C(F)(F)F)C4)ccc3c2)cc1 (stereo not shown) [Example 110, 4-[(2-{[3-(trifluoromethyl)piperidin-1-yl]carbonyl}quinolin-6-yl)oxy]benzonitrile]
- IC50 [1]: 1960 nM

Molecule: O=C(c1ccc2cc(Oc3ccc(C(F)(F)F)cn3)ccc2n1)N1CCCC1c1ccc(C(F)(F)F)cc1 (stereo not shown) [Example 224, {2-[4-(trifluoromethyl)phenyl]pyrrolidin-1-yl}(6-{[5-(trifluoromethyl)pyridin-2-yl]oxy}quinolin-2-yl)methanone]
- IC50 [2]: > 20000 nM

Molecule: N#Cc1ccc(Oc2ccc3nc(C(=O)NCCS(N)(=O)=O)ccc3c2)cc1 [Example 147, 6-(4-cyanophenoxy)-N-(2-sulfamoylethyl)quinoline-2-carboxamide]
- IC50 [1]: 4280 nM

Molecule: 1,4-diazepan-1-yl(6-{[5-(trifluoromethyl)pyridin-2-yl]oxy}quinolin-2-yl)methanone [Example 219]
- IC50 [1]: 2560 nM

Molecule: N#Cc1ccc(Oc2ccc3nc(C(=O)N4CCNCC4)ccc3c2)cc1 [Example 112, 4-{[2-(piperazin-1-ylcarbonyl)quinolin-6-yl]oxy}benzonitrile]
- IC50 [2]: 1480 nM

Molecule: O=C(NCC(=O)N1C[C@H](O)[C@@H](O)C1)c1ccc2cc(Oc3ccc(C(F)(F)F)cn3)ccc2n1 [Example 562, N-{2-[(3S,4S)-3,4-dihydroxypyrrolidin-1-yl]-2-oxoethyl}-6-{[5-(trifluoromethyl)pyridin-2-yl]oxy}quinoline-2-carboxamide]
- IC50 [1]: > 20000 nM

Molecule: CCN(CC)C(=O)CNC(=O)c1ccc2cc(Oc3ccc(C(F)(F)F)nc3)ccc2n1 [Example 517, N-[2-(diethylamino)-2-oxoethyl]-6-{[6-(trifluoromethyl)pyridin-3-yl]oxy}quinoline-2-carboxamide]
- IC50 [1]: 370 nM

Molecule: O=C(NC1C[S+]([O-])C1)c1ccc2cc(Oc3ccc(C(F)(F)F)cn3)ccc2n1 (stereo not shown) [Example 503, N-(1-oxidothietan-3-yl)-6-{[5-(trifluoromethyl)pyridin-2-yl]oxy}quinoline-2-carboxamide]
- IC50 [1]: 586 nM

Molecule: CC(C)[C@H]1CN(C(=O)c2ccc3cc(Oc4ccc(C#N)cc4)ccc3n2)CCN1 [Example 142, 4-[(2-{[(3S)-3-isopropylpiperazin-1-yl]carbonyl}quinolin-6-yl)oxy]benzonitrile]
- IC50 [1]: 766 nM

Molecule: CC(O)CNC(=O)c1ccc2cc(Oc3ccc(C#N)cc3)ccc2n1 (stereo not shown) [Example 128, 6-(4-cyanophenoxy)-N-(2-hydroxypropyl)quinoline-2-carboxamide]
- IC50 [2]: 2850 nM

Molecule: CCN1CC(NC(=O)c2ccc3cc(Oc4ccc(C(F)(F)F)nc4)ccc3n2)CC1=O (stereo not shown) [Example 523, N-(1-ethyl-5-oxopyrrolidin-3-yl)-6-{[6-(trifluoromethyl)pyridin-3-yl]oxy}quinoline-2-carboxamide]
- IC50 [1]: 356 nM

Molecule: {2-[(dimethylamino)methyl]morpholin-4-yl}(6-{[5-(trifluoromethyl)pyridin-2-yl]oxy}quinolin-2-yl)methanone [Example 374]
- IC50 [1]: 970 nM

Molecule: O=C(c1ccc2cc(Oc3ccc(C(F)(F)F)cn3)ccc2n1)N1CCN(c2ccc(Cl)cn2)CC1 [Example 272, [4-(5-chloropyridin-2-yl)piperazin-1-yl](6-{[5-(trifluoromethyl)pyridin-2-yl]oxy}quinolin-2-yl)methanone]
- IC50 [1]: 2990 nM

Molecule: O=C(c1ccc2cc(Oc3ccc(C(F)(F)F)cn3)ccc2n1)N1CCN(S(=O)(=O)C2CCOC2)CC1 (stereo not shown) [Example 381, [4-(tetrahydrofuran-3-ylsulfonyl)piperazin-1-yl](6-{[5-(trifluoromethyl)pyridin-2-yl]oxy}quinolin-2-yl)methanone]
- IC50 [1]: 3410 nM

Molecule: CC1(CO)CN(C(=O)c2ccc3cc(Oc4ccc(C(F)(F)F)cn4)ccc3n2)C1 [Example 207, [3-(hydroxymethyl)-3-methylazetidin-1-yl](6-{[5-(trifluoromethyl)pyridin-2-yl]oxy}quinolin-2-yl)methanone]
- IC50 [2]: 3650 nM

Molecule: CC1(C)CN(CCNC(=O)c2ccc3cc(Oc4ccc(C(F)(F)F)cn4)ccc3n2)C1 [Example 364, N-[2-(3,3-dimethylazetidin-1-yl)ethyl]-6-{[5-(trifluoromethyl)pyridin-2-yl]oxy}quinoline-2-carboxamide]
- IC50 [1]: 370 nM

Molecule: COCCNC(=O)CN(C)C(=O)c1ccc2cc(Oc3ccc(C(F)(F)F)cn3)ccc2n1 [Example 442, N-{2-[(2-methoxyethyl)amino]-2-oxoethyl}-N-methyl-6-{[5-(trifluoromethyl)pyridin-2-yl]oxy}quinoline-2-carboxamide]
- IC50 [1]: 5520 nM

Molecule: O=C(NC1CCC1)c1ccc2cc(Oc3ccc(C(F)(F)F)cn3)ccc2n1 [Example 596, N-cyclobutyl-6-{[5-(trifluoromethyl)pyridin-2-yl]oxy}quinoline-2-carboxamide]
- IC50 [1]: 1760 nM

Molecule: O=C(NCC1COC1)c1ccc2cc(Oc3ccc(C(F)(F)F)cn3)ccc2n1 [Example 482, N-(oxetan-3-ylmethyl)-6-{[5-(trifluoromethyl)pyridin-2-yl]oxy}quinoline-2-carboxamide]
- IC50 [2]: 569 nM
